From US9708314B2, “Heterocyclic amide compound” (NISSAN CHEMICAL INDUSTRIES, LTD., priority 2013, dated 2017)
Values joined by “and” are separate entries in the source; they are usually repeats but may differ in a detail not shown here. Identical values can stand only once.

Assays:
Test in all cases: Test Example 2: herbicidal activity, application during weed generation in submerged conditions
Type in all cases: in vivo
Settings in all cases: Eighteenth Table; application herbicide amount 320 g/ha
[1] = tested on: Echinochloa oryzacola Vasing.
In short: (§1)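 Post-emergence application under submerged conditions: water-diluted emulsion dosed onto the water surface (g/ha) when weeds reach one- to two-leaf stage. Soil flooded to 4 cm; greenhouse 25–30 °C. Herbicidal ratio graded in six classes, 0 (≤5%) to 5 (≥90%), at three weeks.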

Scirpus juncoides = tested on: Scirpus juncoides
In short: as §1

Monochoria vaginalis = tested on: Monochoria vaginalis
In short: as §1

Structure (SMILES)	A (Echinochloa oryzicola Vasing.) herbicidal ratio grade [1]	B (Scirpus juncoides) herbicidal ratio grade (Scirpus juncoides)	C (Monochoria vaginalis) herbicidal ratio grade (Monochoria vaginalis)
Cn1nnnc1NC(=O)c1ccc(C(F)(F)F)n2c(Nc3ccccc3)nnc12 [2-056]	3 (Herbicidal ratio of 40% or more and less than 70%)	3 (Herbicidal ratio of 40% or more and less than 70%)	3 (Herbicidal ratio of 40% or more and less than 70%)
CSCCc1nnc2c(C(=O)Nc3nnnn3C)ccc(C(F)(F)F)n12 [2-057]	4 (Herbicidal ratio of 70% or more and less than 90%)	4 (Herbicidal ratio of 70% or more and less than 90%)	4 (Herbicidal ratio of 70% or more and less than 90%)
Cn1nnnc1NC(=O)c1ccc(C(F)(F)F)n2c(CC[S+](C)[O-])nnc12 (stereo not drawn) [2-058]	4 (Herbicidal ratio of 70% or more and less than 90%)	4 (Herbicidal ratio of 70% or more and less than 90%)	4 (Herbicidal ratio of 70% or more and less than 90%)
Cn1nnnc1NC(=O)c1ccc(C(F)(F)F)n2c(CCS(C)(=O)=O)nnc12 [2-059]	4 (Herbicidal ratio of 70% or more and less than 90%)	3 (Herbicidal ratio of 40% or more and less than 70%)	4 (Herbicidal ratio of 70% or more and less than 90%)
Cn1nnnc1NC(=O)c1ccc(C(F)(F)F)n2c(-c3ccc(Cl)nc3)nnc12 [2-060]	5 (Herbicidal ratio of 90% or more (almost completely withered))	4 (Herbicidal ratio of 70% or more and less than 90%) and 3 (Herbicidal ratio of 40% or more and less than 70%)	5 (Herbicidal ratio of 90% or more (almost completely withered))
Cn1nnnc1NC(=O)c1ccc(C(F)(F)F)n2c(-c3cccs3)nnc12 [2-061]	4 (Herbicidal ratio of 70% or more and less than 90%)	5 (Herbicidal ratio of 90% or more (almost completely withered))	5 (Herbicidal ratio of 90% or more (almost completely withered))
Cc1cc(-c2nnc3c(C(=O)Nc4nnnn4C)ccc(C(F)(F)F)n23)n(C)n1 [2-062]	5 (Herbicidal ratio of 90% or more (almost completely withered))	4 (Herbicidal ratio of 70% or more and less than 90%)	5 (Herbicidal ratio of 90% or more (almost completely withered))
COc1cc(OC)cc(-c2nnc3c(C(=O)Nc4nnnn4C)ccc(C(F)(F)F)n23)c1 [2-063]	5 (Herbicidal ratio of 90% or more (almost completely withered))	4 (Herbicidal ratio of 70% or more and less than 90%)	5 (Herbicidal ratio of 90% or more (almost completely withered))
Cn1nnnc1NC(=O)c1ccc(C(F)(F)F)n2c(-c3cc(Cl)cc(Cl)c3)nnc12 [2-064]	3 (Herbicidal ratio of 40% or more and less than 70%)	4 (Herbicidal ratio of 70% or more and less than 90%)	3 (Herbicidal ratio of 40% or more and less than 70%)
COc1ccc(Cc2nnc3c(C(=O)Nc4nnnn4C)ccc(C(F)(F)F)n23)cc1 [2-065]	5 (Herbicidal ratio of 90% or more (almost completely withered))	4 (Herbicidal ratio of 70% or more and less than 90%)	4 (Herbicidal ratio of 70% or more and less than 90%)
Cn1nnnc1NC(=O)c1ccc(C(F)(F)F)n2c([S+](C)[O-])nnc12 (stereo not drawn) [2-067]	5 (Herbicidal ratio of 90% or more (almost completely withered))	4 (Herbicidal ratio of 70% or more and less than 90%)	5 (Herbicidal ratio of 90% or more (almost completely withered))
CCCSc1nnc2c(C(=O)Nc3nnnn3C)ccc(C(F)(F)F)n12 [2-068]	5 (Herbicidal ratio of 90% or more (almost completely withered))	5 (Herbicidal ratio of 90% or more (almost completely withered))	4 (Herbicidal ratio of 70% or more and less than 90%)
CCC[S+]([O-])c1nnc2c(C(=O)Nc3nnnn3C)ccc(C(F)(F)F)n12 (stereo not drawn) [2-069]	5 (Herbicidal ratio of 90% or more (almost completely withered))	5 (Herbicidal ratio of 90% or more (almost completely withered))	5 (Herbicidal ratio of 90% or more (almost completely withered))
CCCS(=O)(=O)c1nnc2c(C(=O)Nc3nnnn3C)ccc(C(F)(F)F)n12 [2-070]	5 (Herbicidal ratio of 90% or more (almost completely withered))	5 (Herbicidal ratio of 90% or more (almost completely withered))	5 (Herbicidal ratio of 90% or more (almost completely withered))
CC(C)CSc1nnc2c(C(=O)Nc3nnnn3C)ccc(C(F)(F)F)n12 [2-071]	3 (Herbicidal ratio of 40% or more and less than 70%)	5 (Herbicidal ratio of 90% or more (almost completely withered))	5 (Herbicidal ratio of 90% or more (almost completely withered))
CCC(C)Sc1nnc2c(C(=O)Nc3nnnn3C)ccc(C(F)(F)F)n12 (stereo not drawn) [2-072]	5 (Herbicidal ratio of 90% or more (almost completely withered))	5 (Herbicidal ratio of 90% or more (almost completely withered))	5 (Herbicidal ratio of 90% or more (almost completely withered))
CC(C)c1nnc2c(C(=O)Nc3nnnn3-c3ccccc3)ccc(C(F)(F)F)n12 [2-073]	2 (Herbicidal ratio of 20% or more and less than 40%)	2 (Herbicidal ratio of 20% or more and less than 40%)	3 (Herbicidal ratio of 40% or more and less than 70%)
COCCNc1nnc2c(C(=O)Nc3nnnn3C)ccc(C(F)(F)F)n12 [2-074]	4 (Herbicidal ratio of 70% or more and less than 90%)	4 (Herbicidal ratio of 70% or more and less than 90%)	3 (Herbicidal ratio of 40% or more and less than 70%)
Cn1nnnc1NC(=O)c1ccc(C(F)(F)F)n2c(N3CCOCC3)nnc12 [2-075]	5 (Herbicidal ratio of 90% or more (almost completely withered))	5 (Herbicidal ratio of 90% or more (almost completely withered))	5 (Herbicidal ratio of 90% or more (almost completely withered))
Cn1nnnc1NC(=O)c1ccc(C(F)(F)F)n2c(SCc3ccccc3)nnc12 [2-076]	2 (Herbicidal ratio of 20% or more and less than 40%)	3 (Herbicidal ratio of 40% or more and less than 70%)	2 (Herbicidal ratio of 20% or more and less than 40%)
COc1ccc(CSc2nnc3c(C(=O)Nc4nnnn4C)ccc(C(F)(F)F)n23)cc1 [2-077]	2 (Herbicidal ratio of 20% or more and less than 40%)	2 (Herbicidal ratio of 20% or more and less than 40%)	2 (Herbicidal ratio of 20% or more and less than 40%)
Cn1nnnc1NC(=O)c1ccc(C(F)(F)F)n2c(N3CCSCC3)nnc12 [2-078]	4 (Herbicidal ratio of 70% or more and less than 90%)	4 (Herbicidal ratio of 70% or more and less than 90%)	3 (Herbicidal ratio of 40% or more and less than 70%)
COCCN(C)c1nnc2c(C(=O)Nc3nnnn3C)ccc(C(F)(F)F)n12 [2-079]	5 (Herbicidal ratio of 90% or more (almost completely withered))	5 (Herbicidal ratio of 90% or more (almost completely withered))	5 (Herbicidal ratio of 90% or more (almost completely withered))
CSCCNc1nnc2c(C(=O)Nc3nnnn3C)ccc(C(F)(F)F)n12 [2-080]	2 (Herbicidal ratio of 20% or more and less than 40%)	1 (Herbicidal ratio of 5% or more and less than 20%)	0 (Herbicidal ratio of 5% or less (almost no effect))
Cn1nnnc1NC(=O)c1ccc(C(F)(F)F)n2c(NCC(F)(F)F)nnc12 [2-081]	2 (Herbicidal ratio of 20% or more and less than 40%)	2 (Herbicidal ratio of 20% or more and less than 40%)	2 (Herbicidal ratio of 20% or more and less than 40%)
CC(C)N(C)c1nnc2c(C(=O)Nc3nnnn3C)ccc(C(F)(F)F)n12 [2-082]	5 (Herbicidal ratio of 90% or more (almost completely withered))	4 (Herbicidal ratio of 70% or more and less than 90%)	3 (Herbicidal ratio of 40% or more and less than 70%)
CN(c1nnc2c(C(=O)Nc3nnnn3C)ccc(C(F)(F)F)n12)C1CCCCC1 [2-083]	3 (Herbicidal ratio of 40% or more and less than 70%)	3 (Herbicidal ratio of 40% or more and less than 70%)	3 (Herbicidal ratio of 40% or more and less than 70%)
